From patent US20140294856A1, “COMBINATION TREATMENT COMPRISING A HDAC6 INHIBITOR AND AN AKT INHIBITOR” (priority 2011, published 2014)

Legend:
HCT116 cells [1] = experiment: Acetylated PTEN and PTEN expression; type: cell-based, human
Description: FIG. 12. HDAC-C1A treatment is associated with an increase of phopsho-AKT that can be reversed by PI3K/AKT/mTOR inhibitors. […] Similarly, Phospho-Pras 40 seems to increase following treatment with HDAC-C1A. Densitometry data could reinforce this statement (ratio between the total form and the Phospho form of Pras40 that decreases at 24 hours). […] No difference could be seen in endometrial cancer cell line, […]. C. […] E. BEZ-235 can fully reverse the increase of Phospho-AKT mediated by HDAC-C1A in HCT-116 cells. BEZ-235 and HDAC-C1A were co-incubated at the indicated time and concentrations.
FIG. 17. A. Dose and time impact of Tubastatin A on acetylated form of tubulin and histones H3 and H4 and on phospho-AKT levels that could be reversed with BEZ-235 in HCT-116 cells. […] HCT116 were immunoprecipitation with PTEN and stained with HDAC1 or HDAC6, immunoprecipitation with HDAC6 and stained with PTEN. No HDAC1 could have been detected in contrast with HDAC6. There was no effect of the different inhibitors on the different protein levels.
PTEN protein expression was not altered. In vivo, on the gene array, the mRNA levels of PTEN were not altered in HCT116 xenograft model following treatment with HDAC-C1A after 1 and 14 days when compared with vehicle treated group (FIG. 7).
We have shown that HDAC-C1A is associated with increased acetylation of α-tubulin, acetyl HSP90 and acetyl PTEN with only a minor effect on the regulation of the genes (less than 0.7% of the genes have been de-regulated after 14 days of treatment in vivo). We believe that the acetylation of PTEN, via the inhibition of HDAC6, leads to an increase of P-AKT. […] No effect of BEZ235 could be seen on the acetylated status of α-tubulin and histones H3 and H4.

[2] = tested on: HDAC from HeLa cell extract; experiment: Irreversible HDAC inhibition, HeLa nuclear extracts; type: biochemical
Description: (§1) FIG. 1. HDAC-C1A irreversible activity. A. […] inhibitory activity of HDAC-C1A was tested using HeLa nuclear extracts and compared to the negative (reversible) control HDAC-C1B. B Growth inhibitory effect of the different compounds in HCT-116 cells at indicated time and compared to growth inhibitory after 72 hours of incubation.
(§2) HSP90 protein expression was not altered (FIG. 2).

RAD51 = RAD51 mRNA and protein expression; type: cell-based; conditions: in vitro and in vivo
[3] = tested on: A2780 human ovarian cancer xenograft; experiment: Anti-tumour activity in A2780 xenograft model; type: in vivo
Description: FIG. 5. Anti-tumour activity of HDAC-C1A in A2780 (A & B) and HCT116 (C & D) xenograft models (Tumours volumes relative to tumour volume at day 1 (A & C) and corresponding body weight (relative to body weight at day 1) (B & D)). E. Biomarkers screening at early time points following a single injection of HDAC-C1A in HCT116 xenograft at 40 mg/kg compared to a continuous 14 days treatment at the indicated dose. Tumours were excised 6 hours following the last injection.
(§3) The drug was stable after oral, parenteral and intravenous administration for 24 h (last time point examined). […] The Cma and AUC0-24h following i.p. injection (20 mg/kg) were 3.2 μg/mL and 11.2 μg/mL*h, respectively. […] The acid instability of HDAC-C1A could therefore be improved by enteric coating as a means to avoid breakdown in the stomach. […] HDAC-C1A was also tested in HCT116 human colon cancer xenograft model using a refined dose and scheduling. […] This dose was non-toxic (no reduction in body weight) (FIG. 5.D). The acetylated form of α-tubulin (biomarker of response to HDAC6 inhibition) could be observed after 14 days of treatment and could be detected as early as 6 hours after the 1st injection (FIG. 5.E.). The acetylated form of Histone 3 (biomarker of response of class I histones) could be observed as early as 2 hours after the 1st injection and remain after 14 days of treatment (FIG. 5.E).

HCT116 cells [4] = experiment: Phospho-AKT levels by western blotting; type: cell-based, human; conditions: 10 μM
HDAC-8 = HDAC-8 (Homo sapiens, UniProt Q9BY41); experiment: Enzyme inhibition activity, Fluor-de-Lys kit; type: biochemical
HDAC-8, sequence (Q9BY41 whole entry): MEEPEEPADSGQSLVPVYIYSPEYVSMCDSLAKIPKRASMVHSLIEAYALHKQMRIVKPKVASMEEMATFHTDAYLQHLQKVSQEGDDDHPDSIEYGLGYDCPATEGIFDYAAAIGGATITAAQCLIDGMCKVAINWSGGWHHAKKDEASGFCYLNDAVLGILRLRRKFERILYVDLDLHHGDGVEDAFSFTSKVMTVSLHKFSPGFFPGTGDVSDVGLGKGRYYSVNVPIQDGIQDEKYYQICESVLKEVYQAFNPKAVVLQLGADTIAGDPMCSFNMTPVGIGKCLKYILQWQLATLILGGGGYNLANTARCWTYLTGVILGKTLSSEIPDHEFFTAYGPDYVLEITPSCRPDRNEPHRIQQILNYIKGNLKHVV
Excerpt: HDAC-C1A is a particularly preferred HDAC6 inhibitor of the invention. […] HDAC-C1A is approximately 7-fold more specific for HDAC6 than for HDAC-8 and approximately 17-fold more specific for HDAC6 when compared with HDAC1 (see Table 1). […] As brain permeability remains a major limitation for drug treatment of CNS disorders, HDAC-C1A, or compounds derived from HDAC-C1A, appear to be very promising drug candidates.
FIG. 20 (Table 1): Enzyme inhibition activity using HeLa nuclear extract and the Fluor-de-Lys kit.

HCT116 cells [5] = experiment: Acetylation biomarkers by western blotting (with washout); type: cell-based, human
Description: as §1, §2

A2780 cells = experiment: Growth inhibition (GI50); type: cell-based, human
caco-2 cells = experiment: caco-2 transwell permeability assay
MCF7 = experiment: Phospho-AKT levels by western blotting; type: cell-based; conditions: breast cancer cell line MCF7
IGROV-1 = experiment: Phospho-AKT levels by western blotting; type: cell-based; conditions: ovarian cancer cell line IGROV-1
HCT116 cells [6] = experiment: Combination studies, SRB assay, combination index (CalcuSyn); type: cell-based, human
[7] = Stability in PBS at acidic pH, HPLC-UV; type: physicochemical; conditions: down to pH 2, cell free, 10 μM in PBS, 1 hour, 37° C.
Description: FIG. 3. Impact of the pH on the stability of HDAC-C1A. HDAC-C1A was incubated at 10 μM in PBS for 1 hour at 37° C. and the concentration was evaluated using HPLC-UV. The pH of PBS was adjusted using HCL.
as §3

[8] = tested on: panel of 19 cancer cell lines; experiment: Growth inhibition, SRB assay, 72 hours; type: cell-based
Ishikawa = experiment: Phospho-AKT levels by western blotting; type: cell-based; conditions: endometrial cancer cell line Ishikawa (PTEN-null)

SMILES: CC(/C=C/C(=O)NO)=C\c1ccc(NS(=O)(=O)c2ccc(N(CCCl)CCCl)cc2)cc1 [HDAC-C1A]
- PTEN protein expression (HCT116 cells [1]): not altered
- acetyl form of PTEN (HCT116 cells [1]; 4 h and 24 h, 1 μM and 10 μM): dose and time dependent increase
- mode of HDAC inhibition [2]: irreversibly inhibited
- RAD51 mRNA and protein expression (RAD51): did not increase
- body weight loss ([3]; 80 mg/kg/day, in some animals, at 7 days, treatment stopped): 10%
- Tumour Growth Delay (TGD2x) ([3]; i.p. 80 mg/kg/day): 3 ± 0.3 days
- Tumour Growth Inhibition (TGI) compared with vehicle ([3]; i.p. 80 mg/kg/day): 74%
- fold increase of P-AKT (HCT116 cells [4]; 4 h): 1.5 fold
- fold increase of P-AKT (HCT116 cells [4]; 24 h): 2 fold
- fold more specific for HDAC6 than for HDAC-8 (HDAC-8): approximately 7 fold
- HSP90 protein expression (HCT116 cells [5]): not altered
- acetylation markers at low concentration and early time point (HCT116 cells [5]; 1 μM and 4 hours): increase of acetyl-tubulin and other markers of HDAC6 inhibition
- acetyl form of HSP90 (HCT116 cells [5]; 4 h and 24 h, 1 μM and 10 μM): dose and time dependent increase
- acetylation of histone H3, H4 and α-tubulin after washout (HCT116 cells [5]; treatment 4 hours, then washout): maintained at 4 hours after washout
- GI50 (A2780 cells): 700 nM
- permeability across caco-2 cells (caco-2 cells; Caco-2): relatively good permeability
- substrate of the ABC transporters (caco-2 cells; Caco-2): non substrate
- permeability (PappA-B) (caco-2 cells; caco-2 cells): 5.1e-06 cm/s
- PappB-A/PappA-B ratio (caco-2 cells; ratio greater than 3 = actively effluxed): 2.8
- P-AKT levels (MCF7): increased
- P-AKT levels (IGROV-1): increased
- concentration of LY-294002 needed to synergise (HCT116 cells [6]): 1 µM
- lowest concentration synergising with rapamycin (HCT116 cells [6]; ED50): ≥ 1.9 µM
- stability across acidic pH [7]: relative acidic degradation
- mean GI50 [8]: 2 ± 0.4 µg/mL
- P-AKT levels increased (Ishikawa): not
